≈ marks a conversion by molar mass, not a printed value. Non-standard residues stand in square brackets, D forms with d. Residues, ends and D or L forms follow the SMILES beside them. Dab = NCC[C@H](N)C(=O)O
Assays:
[1] = 3T3 NRU cytotoxicity/phototoxicity test; assay type: cell-based, mouse; details: mouse; for CC50: cytotoxicity, no irradiation, BALB 3T3 clone A31, Neutral Red uptake, read-out: Mean CC50 ± SD, −Irr; for CC50 at 24 h: phototoxicity, irradiated 2.4 J/cm^2, BALB 3T3 clone A31, Neutral Red uptake, read-out: Mean CC50 ± SD, +Irr
Description: (§1) The cell lines BALB 3T3 (mouse embryonic fibroblasts) and MCF-12F (human breast epithelial cells) were used as models for healthy tissue. The MCF-7 and MDA-MB-231 cell lines were used as in vitro models for luminal A- and basal B-type breast cancer, respectively. Cell lines were obtained from the American Type Cultures Collection (ATCC, Manassas, VA, USA). Cells were cultured in Dulbecco modified Eagle’s medium (DMEM) supplemented with 10% fetal bovine serum (FBS), 100 U/mL penicillin, and 0.1 mg/mL streptomycin (Sigma-Aldrich, Schnelldorf, Germany) in an incubator at 37 °C, 5% CO2 and 95% humidity. Plastic flasks 75 cm^2 (Biologix, Lenexa, KS, USA) were used to grow the cells.
(§2) The cytotoxicity/phototoxicity testing was performed as described by the OECD Guidelines for the Testing of Chemicals, Section 4, Test No. 432: In Vitro 3T3 NRU Phototoxicity Test. BALB 3T3, clone A31 cells were grown in 75 cm^2 tissue culture flasks in DMEM high-glucose (4.5 g/L), 10% FBS, and antibiotics at 37.5 °C, in a humidified atmosphere under 5% CO2. Cells were plated at 1 × 10^4 cells / 100 μL culture medium in each well of 96-well microplates and allowed to adhere for 24 h before treatment with test compounds. Peptides were dissolved in DMSO and diluted with culture medium to working concentrations from 4 to 1000 μM. In phototoxicity tests, 96-well plates were irradiated (+Irr) with a dose of 2.4 J/cm^2 using an artificial solar light simulator Helios-iO (SERIC Ltd., Tokyo, Japan), and the cells were incubated for an additional 24 h. After treatment with a Neutral Red medium, washing, and application of the NR Desorb solution, the absorption was measured on a microplate reader at a wavelength of 540 nm. Cytotoxicity/phototoxicity was expressed as CC50 values (concentrations required for 50% cytotoxicity).

BALB 3T3 clone A31 cells = assay: 3T3 NRU cytotoxicity/phototoxicity test; assay type: cell-based, mouse; details: PIF = CC50 −Irr/CC50 +Irr; PIF < 2 = not phototoxic
Description: as §1, §2

MCF-12F cells = assay: MTT antiproliferative assay, MCF-12F; assay type: cell-based, human; details: 72 h, non-tumorigenic cell line, read-out: Mean IC50 ± SD, MCF-12F
Description: as §1
(§3) The antiproliferative activity testing was performed on cell cultures using the MTT-dye reduction assay. This assay is based on the metabolism of MTT to insoluble formazan by mitochondrial reductases. The formazan concentration can be determined spectrophotometrically. The measured absorption is an indicator of cell viability. Cell lines (MCF-12F, MCF-7 and MDA-MB-231) were used in the experiments. Cells were plated at a density of 1 × 10^3 cells/100 µL in each well of 96-well microplates and allowed to adhere for 24 h before treatment with test compounds. A concentration range from 4 to 1000 μM was applied for 72 h. The formazan absorption was registered using a microplate reader at λ = 540 nm. Antiproliferative activities were expressed as IC50 values (concentrations required for 50% inhibition of cell growth).

MCF-7 cells = assay: MTT antiproliferative assay, MCF-7; assay type: cell-based, human; details: for IC50: MTT, 72 h, read-out: Mean IC50 ± SD, MCF-7; for SI (Selectivity Index), MCF-7: SI = IC50 MCF-12F/IC50 tumor cells
Description: as §1, §3

[2] = test system: Arthrobacter oxydans NBIMCC 9333; assay type: cell-based; details: broth dilution, 0 to 320 µg/mL, 24 h; NI = no inhibition monitored
Description: (§4) The parent peptide Temporin A and the novel analogs were subjected to tests against model strains Escherichia coli NBIMCC 8785, Bacillus subtilis NBIMCC 3562, Arthrobacter oxydans NBIMCC 9333, Pseudomonas aeruginosa NBIMCC 3700, and Candida albicans NBIMCC 74, for the assessment of their antimicrobial activity. The strains were acquired from the National Bank for Industrial Microorganisms and Cell Cultures (NBIMCC, Bulgaria). The strain E. coli 8785 was cultured in Luria-Bertani broth (LB, HiMedia, Mumbai, India); B. subtilis 3562—in nutrient broth (NB, HiMedia, Mumbai, India); A. oxydans 9333; P. aeruginosa 3700—in meat peptone agar (MPA) medium; and C. albicans 74—in yeast mold (YM) medium. An incubator shaker ES-20/60 (Biosan, Latvia) was used for the cultivation and was set to 30 °C for B. subtilis 3562, A. oxydans 9333, and C. albicans 74; and 37 °C for E. coli 8785 and P. aeruginosa 3700, with a 24 h shaking period at 120 rpm. The microbial cultures were then adjusted to a turbidity of 0.5 McFarland using a Grant-bio DEN-1B densitometer (Grant Instruments, Royston, UK) for further use.
(§5) The minimal inhibitory concentration (MIC) of the peptides was determined using the broth dilution method. Stock solutions of the peptides with a concentration of 10 mg/mL in 10% EtOH/H2O were prepared. Suspensions of the bacteria in the corresponding media were added to 96-well U-shaped bottom polystyrene plates (Deltalab S.L., Spain) and exposed to the peptide in the concentration range from 0 to 320 µg/mL, and a 10% EtOH/H2O control, diluted using the same scheme as the peptides, was also used. The plates were then incubated under aerobic conditions at the corresponding temperature for 24 h. The MIC (µg/mL) was assumed as the lowest concentration of the antimicrobial, where there was visible inhibition of the strain. The absorbance was measured at 630 nm (Microplate reader PKL PPC 142, Paramedical srl, Salerno, Italy). To determine the minimal bactericidal concentration (MBC) and minimal fungicidal concentration (MFC), 10 μL from concentrations greater than or equal to the MIC was placed on the corresponding solid nutrient medium. The Petri dishes were then incubated at 30 or 37 °C for 24 h. All experiments were conducted in a triplicate.

[3] = test system: Bacillus subtilis NBIMCC 3562; assay type: cell-based; details: broth dilution, 0 to 320 µg/mL, 24 h; NI = no inhibition monitored
Description: as §4, §5

[4] = test system: Escherichia coli NBIMCC 8785; assay type: cell-based; details: broth dilution, 0 to 320 µg/mL, 24 h; NI = no inhibition monitored
Description: as §4, §5

[5] = test system: Pseudomonas aeruginosa NBIMCC 3700; assay type: cell-based; details: broth dilution, 0 to 320 µg/mL, 24 h; NI = no inhibition monitored
Description: as §4, §5

Structure (SMILES)	CC50 [1] [µM]	CC50 at 24 h [1] [µM]	PIF (photo irritation factor) (BALB 3T3 clone A31 cells)	IC50 (MCF-12F cells) [µM]	IC50 (MCF-7 cells) [µM]	SI (Selectivity Index), MCF-7 (MCF-7 cells)	MIC, A. oxydans 9333 [2] [µg/mL]	MIC, B. subtilis 3562 [3] [µg/mL]	MIC, E. coli 8785 [4] [µg/mL]	MIC, P. aeruginosa 3700 [5] [µg/mL]
CC[C@H](C)[C@H](NC(=O)CNC(=O)[C@H](CO)NC(=O)[C@H](CC(C)C)NC(=O)[C@@H](NC(=O)[C@H](CCN)NC(=O)CNC(=O)[C@@H](NC(=O)[C@H](CC(C)C)NC(=O)[C@@H]1CCCN1C(=O)[C@H](CC(C)C)NC(=O)[C@@H](N)Cc1ccccc1)[C@@H](C)CC)C(C)C)C(=O)N[C@@H](CC(C)C)C(N)=O [DTDab, FLPLIG-Dab-VLSGIL-NH2] (H-FLPLIG[Dab]VLSGIL-NH2; N-terminus assumed)	210 ± 6.69	207 ± 7.41	1.01	280 ± 13.6	157 ± 4.97	1.78	320 (≈ 239 µM)	160 (≈ 119 µM)	320 (≈ 239 µM)	320 (≈ 239 µM)
CC[C@H](C)[C@H](NC(=O)CNC(=O)[C@H](CO)NC(=O)[C@H](CC(C)C)NC(=O)[C@@H](NC(=O)[C@H](CCCCN)NC(=O)CNC(=O)[C@@H](NC(=O)[C@H](CC(C)C)NC(=O)[C@@H]1CCCN1C(=O)[C@H](CC(C)C)NC(=O)[C@@H](N)Cc1ccccc1)[C@@H](C)CC)C(C)C)C(=O)N[C@@H](CC(C)C)C(N)=O [DTF, FLPLIG-K-VLSGIL-NH2, reference compound] (H-FLPLIGKVLSGIL-NH2)	92.4 ± 2.82	88.4 ± 1.48	1.05	100 ± 3.3	49.8 ± 1.9	2.02	80 (≈ 58.4 µM)	80 (≈ 58.4 µM)	320 (≈ 234 µM)	160 (≈ 117 µM)

From publication PMC11207040, “Synthesis and Biological Studies of New Temporin A Analogs Containing Unnatural Amino Acids in Position 7” (Pharmaceutics, 2024)
